# Values of other authors, collected in US20120071554A1, “DEUTERATED 2-PROPYLPENTANOIC ACID COMPOUNDS” (priority 2008, published 2012).
structure (smiles),measurement,setting,value
"CCCC(CCC)C(=O)O [Valproate, sodium hydrogen bis(2-propylpentanoate)]",administered dose excreted in the urine as the glucuronide conjugate,adult patients on monotherapy,30-50%
same,dose excreted as products of other oxidative mechanisms,adult patients on monotherapy,15-20%
same,dose excreted as the products of mitochondrial beta-oxidation,adult patients on monotherapy,over 40%
same,dose excreted unchanged in the urine,in vivo,Less than 3%
same,increase of the valproate free-fraction,"pediatric patients co-dosed with valproate and aspirin, inhibition of beta-oxidation pathway",4 fold
